# Test results from patent US10654828B2 (NOVARTIS AG, priority 2017, dated 2020).
# Experiments:
# AKT = AKT activation: Phospho-AKT (Ser473) antibody staining in reporter cells; type: cell-based; conditions: Homo sapiens, U2OS, 0.5 h, U2OS GFP-FoxO3a H212R cells, serum starved overnight, compound 30 minutes; total cellular intensity of Phospho-AKT (Ser473) staining; DMSO control 0%
# Summary of the method: (§1)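 Serum-starved U2OS cells expressing GFP-FoxO3a H212R treated with compounds 30 min, fixed, imaged. FoxO3a: nuclear/cytosolic GFP ratio, %. AKT: total cellular phospho-AKT (Ser473) antibody staining intensity, %. DMSO set as 0% activity.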
# FoxO3a = FoxO3a inhibition: GFP-FoxO3a nuclear to cytoplasmic translocation reporter assay; type: cell-based; conditions: Homo sapiens, U2OS, 0.5 h, U2OS GFP-FoxO3a H212R cells, serum starved overnight, compound 30 minutes; ratio of nuclear to cytosolic GFP intensity; DMSO control 0%; read-out: FoxO AC50
# Summary of the method: as §1
Structure (SMILES),AC50 (AKT) [nM],AC50 (FoxO3a) [nM]
"Cc1cc(C(N)=O)nn1-c1ccc2c(c1)c(C1=CCN(C)CC1)cn2Cc1ccc(-c2ccc(S(C)(=O)=O)cc2)cc1 [Example 19-2, 5-methyl-1-(3-(1-methyl-1,2,3,6-tetrahydropyridin-4-yl)-1-((4′-(methylsulfonyl)-[1,1′-biphenyl]-4-yl)methyl)-1H-indol-5-yl)-1H-pyrazole-3-carboxamide]",1020,346
"Cc1cc(C(N)=O)nn1-c1ccc2c(ccn2Cc2ccc(-c3ccc(S(=O)(=O)CCN(C)C)cc3)cc2)c1 [Example 19-3, 1-(1-((4′-((2-(dimethylamino)ethyl)sulfonyl)-[1,1′-biphenyl]-4-yl)methyl)-1H-indol-5-yl)-5-methyl-1H-pyrazole-3-carboxamide]",128,99
"Cc1cc(C(N)=O)nn1-c1ccc2c(c1)c(C1CCOCC1)cn2Cc1ccc(-c2ccc(S(C)(=O)=O)cc2)cc1 [Example 20, 5-methyl-1-(1-((4′-(methylsulfonyl)-[1,1′-biphenyl]-4-yl)methyl)-3-(tetrahydro-2H-pyran-4-yl)-1H-indol-5-yl)-1H-pyrazole-3-carboxamide]",186,68
"Cc1cc(C(N)=O)nn1-c1ccc2c(c1)c(C1=CCNCC1)cn2Cc1ccc(-c2ccc(S(C)(=O)=O)cc2)cc1 [Example 21, 5-methyl-1-(1-((4′-(methylsulfonyl)-[1,1′-biphenyl]-4-yl)methyl)-3-(1,2,3,6-tetrahydropyridin-4-yl)-1H-indol-5-yl)-1H-pyrazole-3-carboxamide]",1650,598
"Cc1cc(C(N)=O)nn1-c1ccc2c(c1)c(CCCO)cn2Cc1ccc(-c2ccc(S(C)(=O)=O)cc2)cc1 [Example 22, 1-(3-(3-hydroxypropyl)-1-((4′-(methylsulfonyl)-[1,1′-biphenyl]-4-yl)methyl)-1H-indol-5-yl)-5-methyl-1H-pyrazole-3-carboxamide]",81,32
"COCCCc1cn(Cc2ccc(-c3ccc(S(C)(=O)=O)cc3)cc2)c2ccc(-n3nc(C(N)=O)cc3C)cc12 [Example 23, 1-(3-(3-methoxypropyl)-1-((4′-(methylsulfonyl)-[1,1′-biphenyl]-4-yl)methyl)-1H-indol-5-yl)-5-methyl-1H-pyrazole-3-carboxamide]",173,56
"Cc1cc(C(N)=O)nn1-c1ccc2c(ccn2Cc2ccc([C@@H]3C[C@@H]4CN(C)C[C@@H]4C3)cc2)c1 [Example 26-1, 5-methyl-1-(1-(4-((3aR,5r,6aS)-2-methyloctahydrocyclopenta[c]pyrrol-5-yl)benzyl)-1H-indol-5-yl)-1H-pyrazole-3-carboxamide]",314,95
"Cc1cc(C(N)=O)nn1-c1ccc2c(ccn2Cc2ccc([C@H]3C[C@@H]4CN(C)C[C@@H]4C3)cc2)c1 [Example 26-2, 5-methyl-1-(1-(4-((3aR,5s,6aS)-2-methyloctahydrocyclopenta[c]pyrrol-5-yl)benzyl)-1H-indol-5-yl)-1H-pyrazole-3-carboxamide]",362,80
"Cc1nc(C(N)=O)nn1-c1ccc2c(ccn2Cc2ccc([C@@H]3C[C@@H]4CN(C)C[C@@H]4C3)cc2)c1 [Example 27, 5-methyl-1-(1-(4-((3aR,5r,6aS)-2-methyloctahydrocyclopenta[c]pyrrol-5-yl)benzyl)-1H-indol-5-yl)-1H-1,2,4-triazole-3-carboxamide]",947,224
"Cc1nc(C(N)=O)nn1-c1ccc2c(ccn2Cc2ccc(-c3ccc(CN4CCCC4)cc3)cc2)c1 [Example 28, 5-methyl-1-(1-((4′-(pyrrolidin-1-ylmethyl)-[1,1′-biphenyl]-4-yl)methyl)-1H-indol-5-yl)-1H-1,2,4-triazole-3-carboxamide]",251,87
"Cc1cc(C(N)=O)nn1-c1ccc2c(ccn2Cc2ccc(-c3ccc(S(C)(=O)=O)nc3)cc2)c1 [Example 30-1, 5-methyl-1-(1-(4-(6-(methylsulfonyl)pyridin-3-yl)benzyl)-1H-indol-5-yl)-1H-pyrazole-3-carboxamide]",633,124
"Cc1cc(C(N)=O)nn1-c1ccc2c(ccn2Cc2ccc(-c3ccc(C(C)(C)O)cn3)cc2)c1 [Example 30-2, 1-(1-(4-(5-(2-hydroxypropan-2-yl)pyridin-2-yl)benzyl)-1H-indol-5-yl)-5-methyl-1H-pyrazole-3-carboxamide]",320,223
"Cc1cc(C(N)=O)nn1-c1ccc2c(ccn2Cc2ccc(-c3ccc(C(C)(C)O)nc3)cc2)c1 [Example 30-3, 1-(1-(4-(6-(2-hydroxypropan-2-yl)pyridin-3-yl)benzyl)-1H-indol-5-yl)-5-methyl-1H-pyrazole-3-carboxamide]",572,126
"Cc1cc(C(N)=O)nn1-c1ccc2c(ccn2Cc2ccc(CC3CN(C)C3)cc2)c1 [Example 32, 5-methyl-1-(1-(4-((1-methylazetidin-3-yl)methyl)benzyl)-1H-indol-5-yl)-1H-pyrazole-3-carboxamide]",4360,1040
"Cc1cc(C(N)=O)nn1-c1ccc2c(ccn2Cc2ccc([C@@]34C[C@@H]3CN(C)C4)cc2)c1 [Example 33, 5-methyl-1-(1-(4-((1R,5S)-3-methyl-3-azabicyclo[3.1.0]hexan-1-yl)benzyl)-1H-indol-5-yl)-1H-pyrazole-3-carboxamide]",2810,383
"Cc1cc(C(N)=O)nn1-c1ccc2c(ccn2Cc2ccc(-c3ccc(CN4CCC[C@H]4CO)cc3)cc2)c1 [Example 34-1, (S)-1-(1-((4′-((2-(hydroxymethyl)pyrrolidin-1-yl)methyl)-[1,1′-biphenyl]-4-yl)methyl)-1H-indol-5-yl)-5-methyl-1H-pyrazole-3-carboxamide]",184,119
"Cc1cc(C(N)=O)nn1-c1ccc2c(ccn2Cc2ccc(-c3ccc(CN4CCC[C@@H]4CO)cc3)cc2)c1 [Example 34-2, (R)-1-(1-((4′-((2-(hydroxymethyl)pyrrolidin-1-yl)methyl)-[1,1′-biphenyl]-4-yl)methyl)-1H-indol-5-yl)-5-methyl-1H-pyrazole-3-carboxamide]",3,42
"Cc1cc(C(N)=O)nn1-c1ccc2c(ccn2Cc2ccc(-c3ccc(CN4CCN(C)CC4)cc3)cc2)c1 [Example 34-3, 5-methyl-1-(1-((4′-((4-methylpiperazin-1-yl)methyl)-[1,1′-biphenyl]-4-yl)methyl)-1H-indol-5-yl)-1H-pyrazole-3-carboxamide]",266,131
"Cc1cc(C(N)=O)nn1-c1ccc2c(ccn2Cc2ccc(-c3ccc(CN4CCNCC4)cc3)cc2)c1 [Example 35, 5-methyl-1-(1-((4′-(piperazin-1-ylmethyl)-[1,1′-biphenyl]-4-yl)methyl)-1H-indol-5-yl)-1H-pyrazole-3-carboxamide]",603,181
"Cc1cc(C(N)=O)nn1-c1ccc2c(ccn2Cc2ccc(-c3ccc(C(=O)N4CCN(C)CC4)cc3)cc2)c1 [Example 36, 5-methyl-1-(1-((4′-(4-methylpiperazine-1-carbonyl)-[1,1′-biphenyl]-4-yl)methyl)-1H-indol-5-yl)-1H-pyrazole-3-carboxamide]",39,49
